Laboratory results: patent publication US6689762B1, “Composition and methods for treatment of HIV infection” (Enzon Pharmaceuticals, Inc., priority 1998, dated 2004)
“And” between values parts separate entries of the source, which are not always exact repeats. Equal entries are not always repeated.

Key:
[1] = system: HIV-RT levels of HIV-1 infected CEM/0 cell pellets; test: HIV-RT ELISA (Reverse Transcriptase Assay, non-radioactive) in cell pellets of HIV-1 infected CEM/0 T-cells; type: cell-based; conditions: Table 9
Description: The following is a general procedure for the HIV-reverse transcriptase assay:
The cell line used for these studies is CCRF/CEM/O, a human T-leukemic cell line. PEG-ASNase (ONCASPAR) is provided by Rhone-Poulenc Rorer. Saquinavir is commercially available. RPMI-1640 media (Irvine Scientific, Irvine, Calif.) is enriched with 10% Fetal Calf Serum (Gemini Biosource, Calabasas, Calif.), 5% 1M Hepes Buffer solution and 5% Non-essential amino acids (Irvine Scientific, Irvine, Calif.). The drug concentrations used are as follows:
Briefly, 2×10^6 cells/ml are stimulated with PHA+ media for 48 hours at 37° C. with 5% CO2. Also, the same number of cells are incubated in PHA(phytohemagglutinin) free media for 48 hours to serve as the negative control. At this point the cells are inoculated with the HIV-1 virus as per standard protocol. PEG-ASNase and/or Saquinavir are added to the cells in the appropriate concentrations (see above). The control cells are resuspended in drug-free media for the duration of the exposure which lasted seven days. At day five, two 1 ml aliquots of media are removed from the flasks and stored under liquid nitrogen. At day seven, two more 1 ml aliquots of media are removed from the flasks and stored under liquid nitrogen. In addition, the remaining cells are pelleted and stored at −80° C.
The samples produced from this experiment are itemized and then assayed for HIV-RT using the Reverse Transcriptase Assay, non-radioactive (Boehringer Mannheim). The standard curve is determined and the HIV-RT levels for the experimental samples are calculated.
This experiment is carried out using a similar procedure, and the same concentrations of materials as in Experiment 7, however the exposure of the HIV virus in T-cell pellets to PEG-ASNase and Saquinavir alone, and in combination is measured. It should be noted that “PEG” in Table 2a represents PEG-ASNase. […]

[2] = system: HIV-RNA in supernatant of HIV-1 infected CEM/0 T-cells; test: HIV-1 quantitative RNA assay (HIV-1 Monitor) in supernatants of CEM/0 T-cells; type: cell-based; design: inhibition of HIV-RNA in the supernatants in comparison to untreated control / % OF CONTROL / % control: concentration or dose not given beside the values
Description: It should be noted that “PEG” in Table 3 represents PEG-ASNase.
Materials and Methods: The cell line used for these studies is CEM/0, a human T-cell leukemic cell line. PEG-ASNase (ONCASPAR) is provided by Rhone-Poulenc Rorer. Saquinavin is commercially available. AZT is purchased from Sigma. MISID, a ribonucleotide reductase inhibitor, is as described in Nandy P, Lien E J, Avramis V I, Med. Chem. Res. 1995, 5:664-679. RPMI-1640 media (Irvine Scientific, Irvine, Calif.), is enriched with 10% Fetal Calf Serum (Gemini Biosource, Calabasas, Calif.), 5% 1M Hepes Buffer solution and 5% Non-essential amino acids (Irvine Scientific, Irvine, Calif.). The drug concentrations used are as follows:
Briefly, 3×10^6 cells/ml are stimulated with PHA+ media for 48 hours at 37° C. with 5% CO2. Also, the same number of cells are incubated in PHA free media for 48 hours to serve as the negative control. At this point the cells are inoculated with the HIV-1 virus as per standard protocol. Note that in this experiment, the HIV containing supernatant from the PHA-stimulated healthy human peripheral mononuclear cells (PBMC) is not removed from the PHA-stimulated CEM/0 cell culture. […] These virus particles are continuously released by already infected T-cells and/or lymph nodes of patients.
The experimental drugs are added to the cells in the appropriate concentrations at the same time as viral inoculation or 90 minutes after the viral incubation, a time sufficient for the T-cells to be infected and start producing new HIV-1 virus particles. The control cells are resuspended in drug-free media for the duration of the exposure which lasted seven days. Aliquots of media from the control flasks only are obtained on day 5 post Rx. At day seven, three 1 ml each, aliquots of media are removed from the flasks and stored under liquid nitrogen. In addition, the remaining cells are split into three and then pelleted and stored at −80° C. Supernatant specimens are obtained form these T-cell cultures and are frozen at −80° C. The samples produced from this experiment are itemized. The cell pellets of the cellular cultures (see Experiment 9) from the 90 minute viral incubation flasks are assayed for HIV-RNA quantitative assay using a kit for the assay, non-radioactive. […] The standard curve is determined and the HIV-RNA levels for the experimental samples are calculated and reported previously.
This experiment is carried out using a similar procedure, and the same concentrations of materials as in Experiment 10, however the exposure of HIV-RNA in T-cell supernatants to a combination of PEG-ASNase, Saquinavir, AZT and 3TC is measured. It should be noted that “PEG” in Table 10 represents PEG-ASNase.

SMILES: Nc1ccn([C@@H]2CS[C@H](CO)O2)c(=O)n1 [3TC, lamivudine]
- MEAN X3 (HIV-RT) [1]: 0.004 ng/well
- MEAN ([2]; Table 10): 1752 copies/mL
- N* ([2]; Table 10, per specimen, day 7 post Rx, PEG 0.400 IU/ml, SAQ 25 uM, AZT 1 uM, 3TC 1 uM, combinations PEG 0.233 IU/ml + SAQ 14.52 uM): 1700 copies/mL and 1836 copies/mL and 1719 copies/mL
- % OF CONTROL ([2]; Table 10 and Experiment 11): 39.58%
